Source: PubChem BioAssay (NCI)
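A five-concentration, 48-hour dose response in 96-well plates underlies each endpoint, interpolated linearly between surrounding concentrations. GI50 is the concentration that inhibits growth by half. Definition used: TGI = concentration required for complete inhibition of growth.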

Key:
Test in all cases: NCI tumour cell line growth inhibition, 48 h
[1] = test system: HOP-92 NSCLC
[2] = test system: SF-268 CNS
[3] = test system: HCC-2998 colon
[4] = test system: HCT-15 colon
[5] = test system: MDA-N
[6] = test system: HOP-62 NSCLC
[7] = test system: MOLT-4 leukemia
[8] = test system: OVCAR-4 ovarian
[9] = test system: A498 renal
[10] = test system: HL-60(TB) leukemia
[11] = test system: UO-31 renal
[12] = test system: CCRF-CEM leukemia
[13] = test system: LOX IMVI melanoma
[14] = test system: RXF 393 renal
[15] = test system: NCI-H23 lung
[16] = test system: NCI/ADR-RES ovarian
[17] = test system: HT29 colon
[18] = test system: MALME-3M melanoma
[19] = test system: KM12 colon
[20] = test system: DU-145 prostate
[21] = test system: UACC-257 melanoma
[22] = test system: SK-MEL-2 melanoma
[23] = test system: NCI-H460 lung
[24] = test system: NCI-H226 lung
[25] = test system: SK-OV-3 ovarian
[26] = test system: IGROV1 ovarian
[27] = test system: MCF7 breast
[28] = test system: MDA-MB-231 breast
[29] = test system: OVCAR-5 ovarian
[30] = test system: HCT-116 colon
[31] = test system: PC-3 prostate
[32] = test system: M14 melanoma
[33] = test system: SNB-19 CNS
[34] = test system: COLO 205 colon
[35] = test system: U251 CNS
[36] = test system: RPMI-8226 leukemia
[37] = test system: ACHN renal
[38] = test system: NCI-H522 lung
[39] = test system: TK-10 renal
[40] = test system: OVCAR-3 ovarian
[41] = test system: A549 NSCLC
[42] = test system: OVCAR-8 ovarian
[43] = test system: CAKI-1 renal
[44] = test system: SK-MEL-28 melanoma
[45] = test system: HS 578T breast
[46] = test system: T-47D breast
[47] = test system: EKVX NSCLC
[48] = test system: SN12C renal
[49] = test system: SW-620 colon
[50] = test system: SF-295 CNS
[51] = test system: 786-0 renal
[52] = test system: BT-549 breast
[53] = test system: SNB-75 CNS
[54] = test system: MDA-MB-435
[55] = test system: SF-539 CNS
[56] = test system: UACC-62 melanoma
[57] = test system: SK-MEL-5 melanoma
[58] = test system: K-562 leukemia
[59] = test system: SR leukemia

SMILES: O=S(=O)(Nc1nccs1)c1ccc(Nc2nc(-c3cccs3)nc3ccc(I)cc23)cc1
- TGI [1]: 40 µM
- TGI [2]: > 100 µM
- TGI [3]: 51.5 µM
- TGI [4]: > 80.9 µM
- TGI [5]: > 100 µM
- TGI [6]: 51.1 µM
- TGI [7]: > 62.4 µM
- TGI [8]: 63.2 µM
- GI50 [9]: 17.4 µM
- TGI [9]: > 62.3 µM
- TGI [10]: > 89.3 µM
- TGI [11]: 65.1 µM
- TGI [12]: > 19.9 µM
- TGI [13]: 51.8 µM
- TGI [14]: > 92.2 µM
- TGI [15]: > 75.8 µM
- TGI [16]: > 100 µM
- TGI [17]: 51.7 µM
- TGI [18]: 44.2 µM
- TGI [19]: 44.1 µM
- TGI [20]: 46.5 µM
- TGI [21]: > 65.7 µM
- TGI [22]: > 77.9 µM
- TGI [23]: > 81.6 µM
- TGI [24]: 74.8 µM
- TGI [25]: 67 µM
- TGI [26]: 58.7 µM
- TGI [27]: > 100 µM
- GI50 [28]: > 37.8 µM
- TGI [28]: > 57.2 µM
- TGI [29]: 86.3 µM
- TGI [30]: 36.8 µM
- TGI [31]: 32.7 µM
- TGI [32]: 58.5 µM
- TGI [33]: > 93 µM
- TGI [34]: 38.2 µM
- TGI [35]: 54.7 µM
- TGI [36]: 20.1 µM
- TGI [37]: > 75.2 µM
- TGI [38]: > 73.1 µM
- TGI [39]: 44.5 µM
- TGI [40]: 39.9 µM
- TGI [41]: 71.2 µM
- TGI [42]: > 69.4 µM
- TGI [43]: 48.7 µM
- TGI [44]: 56 µM
- GI50 [45]: 14 µM
- TGI [45]: > 70 µM
- TGI [46]: 56.6 µM
- TGI [47]: 48.1 µM
- TGI [48]: > 74.6 µM
- TGI [49]: > 59.6 µM
- TGI [50]: 43.1 µM
- TGI [51]: 89.4 µM
- TGI [52]: 54 µM
- TGI [53]: 74 µM
- TGI [54]: 44 µM
- TGI [55]: 68.3 µM
- TGI [56]: 52.6 µM
- TGI [57]: 28.4 µM
- TGI [58]: > 55.8 µM
- TGI [59]: 68.4 µM

SMILES: COc1cc2c(cc1OCCCC(=O)Nc1cc(C(=O)Nc3cc(C(=O)Nc4cc(C(=O)NCCCN(C)C)n(C)n4)n(C)c3)n(C)c1)N=CC1CCCN1C2=O (stereo unspecified)
- TGI [1]: 51.1 µM
- TGI [2]: 63.1 µM
- TGI [3]: 76.5 µM
- TGI [4]: > 100 µM
- TGI [5]: 41.4 µM
- TGI [6]: > 100 µM
- TGI [7]: 32.4 µM
- TGI [8]: 38.6 µM
- TGI [9]: 57.7 µM
- TGI [10]: 16.3 µM
- TGI [11]: 53 µM
- TGI [12]: > 100 µM
- TGI [13]: 55.5 µM
- TGI [14]: 42.3 µM
- TGI [15]: 78.5 µM
- TGI [16]: > 100 µM
- TGI [17]: 44.5 µM
- TGI [18]: 36.6 µM
- TGI [19]: 64.1 µM
- TGI [20]: > 100 µM
- TGI [21]: 44 µM
- TGI [22]: 49.9 µM
- TGI [23]: > 100 µM
- TGI [24]: 51.3 µM
- TGI [25]: > 100 µM
- TGI [26]: 49.1 µM
- TGI [27]: 58.7 µM
- TGI [28]: > 100 µM
- TGI [29]: > 100 µM
- TGI [30]: > 100 µM
- TGI [31]: 48.9 µM
- TGI [32]: 72.2 µM
- TGI [33]: 49.7 µM
- TGI [34]: > 100 µM
- TGI [35]: 59.8 µM
- TGI [36]: 82.8 µM
- TGI [37]: 40 µM
- TGI [38]: 4.77 µM
- TGI [39]: 39.4 µM
- TGI [40]: > 100 µM
- TGI [41]: > 100 µM
- TGI [42]: > 100 µM
- TGI [43]: 78.1 µM
- TGI [44]: 33.9 µM
- TGI [45]: 48 µM
- TGI [46]: > 100 µM
- TGI [47]: > 100 µM
- TGI [48]: 51.3 µM
- TGI [49]: 48.6 µM
- TGI [50]: > 100 µM
- TGI [51]: > 100 µM
- TGI [52]: 44.7 µM
- TGI [53]: 44.7 µM
- TGI [54]: 64.5 µM
- TGI [55]: 48.5 µM
- TGI [56]: 39.9 µM
- TGI [57]: 42.6 µM
- TGI [58]: 39.8 µM
- TGI [59]: 25.4 µM
